# “Also recorded” adds a separate entry of the source.
# How the values were obtained:
# B16-F10 melanoma cells = test: Tumor growth and initiation in vivo, B16-F10; set-up: species or system mice
# From the text: B16-F10 (A) or Ret (B) cells were co-injected with Matrigel into syngeneic mice. […] Numbers indicate the number of animals with a tumor in each group. Bar graphs show the mean tumor volume in each group at the day when the first animal had reached the legal tumor size limit. Kaplan-Meier curves show the percentage of tumor-free animals in percent as a measure for tumor initiation.
# Cells were harvested using trypsin/EDTA and washed in PBS. The indicated numbers of living melanoma cells were subcutaneously injected into the flank of syngeneic mice in 100 μl PBS. For co-injection experiments, the indicated number of living cells was resuspended in 100 μl Matrigel HC (10 mg/ml, #354262, Corning Inc.), and subcutaneously injected into the flank. Tumor volume was calculated using the formula 4/3π (d1/2×d2/2×d3/2), where d1−d3 represents the diameter of the tumor in three dimensions. […] All animal experiments were approved by the local authorities, and performed according to the German legal requirements. Tumor initiating cell (TIC) frequency and p-values were calculated using ELDA software.
# To investigate the anti-tumor properties of the selected Id1/Id3-inhibiting compounds, groups of experimental mice (8 per group) were injected subcutaneously with B16-F10 or Ret melanoma cells. […] Melanoma initiation and growth was assessed over a period of 90 days.
# B16-F10 and Ret cells = test: 3D Matrigel assay; type: cell-based, murine; conditions: daily application in 3D Matrigel
# Description: X8166 inhibits melanoma cell growth in 3D Matrigel. B16-F10 (A) or Ret (B) control or CRISPR/Cas9 Id1/Id3 cells were seeded in 3D Matrigel (10 mg/ml) and grown for six days before analysis. B16-F10 or Ret cells were treated daily with DMSO or X8166 (7.5 μM). The number of colonies at six positions of each well of a 48-well plate were counted in each z-level (5-10 z-levels were imaged per position).
# Cells (2×10^3) were mixed with Matrigel to obtain 150 μl of a cell/Matrigel (10 mg/ml, #354262, Corning Inc.) solution, which was seeded into a well of a 48-well plate. The gel was allowed to solidify at 37° C. for 30 min and was subsequently overlaid with 500 μl complete growth medium. After six days of culture, images were captured using a Leica DMI6000 B microscope at six different x/y positions in every well, and a minimum of five horizontal layers (z levels) at each position, in order to get every cell in focus for image analysis. Image analysis was performed using Fiji software as follows: First, images were transformed into 8-bit files (pixel values from 0 (black) to 255 (white)). The scale was set to distance=0, known=0, pixel=1, and unit=pixel global. Outlines of each colony in focus in every image were detected using the integrated semi-automatic magic wand tool. Once outlines were matching the morphology of the colony were obtained, the colony was filled white (pixel value 255) using the fill function. Thresholding of pixel values (threshold=255) allowed black (background) and white (colonies) images of the filled colonies to be obtained. The “Analyze particles” function was applied to measure the area and perimeter of colonies with a minimum pixel size of 1500. An invasive index was calculated as follows: Invasive index=(perimeter)^2/area, resulting in a unitless measure of invasiveness.
smiles,measurement,setting,value
"CCCCc1cc2c(O)cc(C3(CCCC)CCCCC3)cc2oc1=O [X6632, 7-(1-Butylcyclohexyl)-5-hydroxy-3-butyl-2H-chromen-2-one]",Melanoma growth and initiation,"B16-F10 melanoma cells; B16-F10 cells co-injected with Matrigel, syngeneic mice, daily i.p. first 14 days, compared to DMSO",significantly inhibit; also recorded: potent inhibitors
same,Number of animals with tumors,"B16-F10 melanoma cells; B16-F10 cells, 8 mice per group, assessed over 90 days",three
same,Tumor growth and initiation compared to CBD,"B16-F10 melanoma cells; B16-F10 experiment, daily i.p. first 14 days",significantly more effective
same,"3D assays could not be performed with daily application, reason",B16-F10 and Ret cells,cytotoxicity

# — patent US20220259172A1, “CHEMICAL INHIBITORS OF ID PROTEINS FOR THE TREATMENT OF CANCER AND OTHER DISEASES” (Universität Heidelberg, priority 2019, published 2022)
